The source of these data is paper PMC5976465, “Triptolide, a HSP90 middle domain inhibitor, induces apoptosis in triple manner” (Oncotarget, 2018).

In experiment [1] the target is T1, HSP90β (Homo sapiens, UniProt P08238).
T1 construct: gene HSP90AB1; recombinant HSP90β expressed in BL21(DE3) from pET52b
As to the kind of experiment: colorimetric ATPase assay with recombinant protein; also MANT-ADP binding and CDC37 pulldown. The format is biochemical.

Experiment [2] has as its target T2, HSP90β (Homo sapiens, UniProt P08238, C366S).
T2 construct: gene HSP90AB1; recombinant HSP90β C366S
As to the kind of experiment: colorimetric ATPase assay and MANT-ADP binding assay at […] TL. In kind it is biochemical.

Structures are written as SMILES.

T1 sequence (P08238 2-724): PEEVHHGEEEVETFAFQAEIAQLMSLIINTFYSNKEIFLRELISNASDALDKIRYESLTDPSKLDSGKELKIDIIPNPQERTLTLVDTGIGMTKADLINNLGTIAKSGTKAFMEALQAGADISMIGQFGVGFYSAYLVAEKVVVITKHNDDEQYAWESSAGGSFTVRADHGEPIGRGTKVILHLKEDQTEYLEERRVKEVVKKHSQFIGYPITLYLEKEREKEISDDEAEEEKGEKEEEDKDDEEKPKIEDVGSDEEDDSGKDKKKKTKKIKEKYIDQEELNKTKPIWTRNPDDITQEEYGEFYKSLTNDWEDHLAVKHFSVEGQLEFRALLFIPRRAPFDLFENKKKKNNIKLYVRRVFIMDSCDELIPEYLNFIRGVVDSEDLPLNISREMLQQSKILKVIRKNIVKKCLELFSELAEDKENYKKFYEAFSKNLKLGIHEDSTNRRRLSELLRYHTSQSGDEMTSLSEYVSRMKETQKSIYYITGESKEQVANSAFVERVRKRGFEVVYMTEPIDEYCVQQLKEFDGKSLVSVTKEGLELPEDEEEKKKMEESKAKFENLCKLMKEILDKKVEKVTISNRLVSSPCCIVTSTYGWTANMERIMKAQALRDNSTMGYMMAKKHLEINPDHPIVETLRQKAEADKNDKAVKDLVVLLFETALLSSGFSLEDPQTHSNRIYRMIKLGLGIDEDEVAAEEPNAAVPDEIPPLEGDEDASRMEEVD
T2 sequence (P08238 2-724 C366S): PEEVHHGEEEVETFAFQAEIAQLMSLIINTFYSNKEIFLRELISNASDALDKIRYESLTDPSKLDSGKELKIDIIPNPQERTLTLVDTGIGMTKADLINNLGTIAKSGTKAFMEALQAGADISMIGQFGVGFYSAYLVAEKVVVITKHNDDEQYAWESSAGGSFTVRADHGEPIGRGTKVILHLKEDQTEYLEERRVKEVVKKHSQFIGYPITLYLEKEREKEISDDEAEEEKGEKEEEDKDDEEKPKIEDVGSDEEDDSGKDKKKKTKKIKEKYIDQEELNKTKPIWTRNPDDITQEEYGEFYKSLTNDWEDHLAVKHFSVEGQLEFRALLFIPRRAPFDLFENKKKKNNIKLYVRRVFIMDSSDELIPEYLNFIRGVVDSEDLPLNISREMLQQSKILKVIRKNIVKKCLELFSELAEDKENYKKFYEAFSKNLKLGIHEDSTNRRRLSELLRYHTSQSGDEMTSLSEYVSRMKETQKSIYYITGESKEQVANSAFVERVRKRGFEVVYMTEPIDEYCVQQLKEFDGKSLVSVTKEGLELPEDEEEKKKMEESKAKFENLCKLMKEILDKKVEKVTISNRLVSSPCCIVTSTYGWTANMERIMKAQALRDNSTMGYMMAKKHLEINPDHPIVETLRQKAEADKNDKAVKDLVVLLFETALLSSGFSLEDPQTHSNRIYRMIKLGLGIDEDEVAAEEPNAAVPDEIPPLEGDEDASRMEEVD

The term IC50 denotes the point on the concentration scale where inhibition reaches its midpoint. `CC(C)[C@]12O[C@H]1[C@@H]1O[C@]13[C@]1(O[C@H]1C[C@H]1C4=C(CC[C@@]13C)C(=O)OC4)[C@@H]2O` [TL, Triptolide]: in experiment [1], the IC50 worked out at 29.9 µM. The “colorimetric ATPase assay and MANT-ADP binding assay at 50 μM TL” value in experiment [2] was “TL exhibited a similar inhibitory effect on both HSP90β^WT and HSP90β^C366S”.
